Experimental findings from patent publication US20220096515A1, “Methods and Formulations for Preventing Neurological or Psychiatric Disorders” (Huntington Medical Research Institutes, priority 2020, published 2022) are described below.

The test system of one assay is Gabrb3^ECKO mice. The assay can be described thus: Open field locomotor activity. It counts as in vivo, mouse. To be noted: 60 minutes; between the three groups. On the procedure: Behavioral Experiments: Mice were housed in our animal facility with a 12-hour light cycle with ad libitum access to food and water. Offspring stayed with their mothers until weaning at PND 21 after which males and females were separated. Before all behavioral testing, mice were acclimated to the testing room for 1 hour. Behavioral assays were performed according to established protocols referenced here: self-grooming, light-dark box, tail suspension test, Y-maze, open field locomotion activity, three chamber social interaction test and nest building with nestlets and with shredded paper. Both males and females were used for all behavioral assays. Experimenters scoring behaviors were blinded to the genotypes and treatment. Sample sizes for each assay are noted in figure legends.
Anxiety was next assessed with the classic light-dark transition test which triggers a struggle between the desires to explore a novel environment versus natural aversion of a brightly illuminated open space. […] The Y maze spontaneous alternation test was used to evaluate for spatial learning and memory in the three groups of mice. After introduction to the center of the maze, the mice were given free access to all three arms. […] The total number of arm entries and the sequence of entries are recorded in order to calculate the percentage of alternation. […]

Assay [1] has as its system Gabrb3^ECKO telencephalon. The assay can be described thus: Microarray gene expression profile of MGE and striatal tissue at E18. It counts as in vivo, mouse. On the procedure:
Gene expression profile analysis: RNA samples were prepared from saline-treated Gabrb3^fl/fl, saline-treated Gabrb3^ECKO and NAD^+-treated Gabrb3^ECKO groups from three different brain pools. Total RNA from each of the samples was extracted by using the PicoPure RNA Isolation kit (Arcturus) following the supplier's protocol. Microarray was performed with Mouse Gene 2.0 ST Array (Affymetrix) at the Boston University Microarray & Sequencing Resource, Boston, MA. Mouse Gene 2.0 ST CEL files were normalized to produce gene-level expression values using the implementation of the Robust Multiarray Average (RMA) in the affy package (version 1.36.1) included in the Bioconductor software suite (version 2.11). Principal component analysis (PCA) was analyzed and visualized using Transcriptome Analysis Console 4.0 (Affymetrix). Heatmap visualization and analysis were performed using Morpheus (Broad Institute, Boston, Mass., USA; software.broadinstitute.org/GENE-E/), and ranked by t-test statistics. Violin plot visualization was generated with Z-score using GraphPad Prism v8.0 (GraphPad Software, La Jolla Calif. USA). The gene ontology for gene enrichment study was performed in three GO TERM annotation categories by using the Database for Annotation, Visualization and Integrated Discovery (DAVID) v6.8. Mouse Genome Informatics (MGI) (GO TERM structure categories: cerebral cortex interneuron migration; GABAergic neuron differentiation; interneuron development; MGE derived cells).
In this exemplary embodiment, to gain deeper insights into NAD^+ mediated specific actions in the subcortical telencephalon, a micro-dissection of the MGE and striatal tissue from telencephalic slices of saline-treated Gabrb3^fl/fl mice, saline-treated Gabrb3^ECKO mice, and NAD^+-treated Gabrb3^ECKO mice at E18 was performed. RNA was further extracted, and microarray hybridization on Mouse Gene 2.0 ST arrays (Affymetrix) was performed for Subsequent gene expression analysis (FIG. 7A). Principal component analysis (PCA) plots depicted strict clustering of triplicates from the three samples in the 3D PCA table (FIG. 8A). Differentially expressed genes (fold change cut off ≥+/−50%) in the three groups were compared and represented as heat maps (FIGS. 7B-7C). […] Genes were further classified into specific categories that are essential for embryonic forebrain development: angiogenesis, neurogenesis, GABA signaling and GABA transcription related genes, and the top differentially expressed genes in each category are shown (FIGS. 9A-9E). […] Additionally, differential expression of 10 marker genes in angiogenesis and GABAergic neuron categories in saline-treated Gabrb3^fl/fl, saline-treated Gabrb3^ECKO, and NAD^+-treated Gabrb3^ECKO groups were represented as violin plots (FIGS. 7D-7G).

The test system of assay [2] is cerebral cortex of Gabrb3^ECKO mice. The assay can be described thus: In vivo multiphoton laser-scanning microscopy of cortical microvasculature. More on the design: species or system mouse. The protocol:
In vivo imaging of brain microvasculature by multiphoton laser-scanning microscopy: In vivo imaging of the brain vasculature in cranial window bearing mice was performed as described previously. Briefly, a cranial window was implanted by removing circular area of skull and dura. Then, the window was sealed with a 7 mm cover glass glued to the bone. For the measurement of red blood cell (RBC) velocity and blood vessel diameter, we used multiphoton laser-scanning microscopy (MPLSM). To avoid potential tissue/vessel alteration caused by the window implantation procedure, we performed imaging at least 10 days after cranial window implantation. For imaging, mice were anesthetized with ketamine/xylazine, then tetramethylrhodamine (TAMRA)-dextran (MW 500,000) was administrated through retro-orbital injection. Using TAMRA-dextran contrast enhanced angiography, region of interest is first identified. Since the intravenously injected dye labels only the blood plasma, RBCs appear as dark patches moving within the vessel lumen. Centerline RBC velocity was measured by repetitively scanning a line along the central axis of a single blood vessel (x-t) and enabling the tracking of the motion of these dark patches. The space-time image produced by the line-scan contained diagonal dark streaks formed by moving RBCs, with a slope that was inversely proportional to the centerline RBC velocity. This space-time image was then computationally processed using Matlab and Python to extract the gradient of each streak, corresponding to the RBC velocity. Briefly, diagonal filters of varying gradients were tested for each streak until the gradient that fit best was found. […] The blood flow rate was determined through the following formula: […]
Therefore, vessel diameters, red blood cell (RBC) velocity, and blood flow were evaluated in the cerebral cortex of saline-treated Gabrb3^fl/fl mice, saline-treated Gabrb3^ECKO mice, and NAD^+-treated Gabrb3^ECKO mice (FIGS. 14A-14F) using multiphoton laser-scanning microscopy (MPLSM) and a sophisticated cranial window model. […]

Setting [3] is: adult, after prenatal treatment.

As to `NC(=O)c1ccc[n+]([C@@H]2O[C@H](COP(=O)([O-])OP(=O)(O)OC[C@H]3O[C@@H](n4cnc5c(N)ncnc54)[C@H](O)[C@@H]3O)[C@@H](O)[C@H]2O)c1` [NAD^+], the “open field locomotor activity” value in the assay on Gabrb3^ECKO mice is given as “no significant differences”. For the same compound, in assay [1] (E18), the “GABA neuronal subtype and development genes downregulated in Gabrb3^ECKO (Calb2, Sst, Calb1, Sirt2, Ascl1, Nr2f2, Bdnf, Arx, Sox2)” value was “rescued”; the “GABAergic pathway regulatory and axon guidance genes upregulated in Gabrb3^ECKO (Dlx4, Sirt1, Drp2, Foxg1, Daxx, Ablim1, Nrg3)” value is listed as “restored to normal expression levels”; the “angiogenesis genes downregulated in Gabrb3^ECKO (Fgfr3, Thbs1, Serpinf1, Tbx1, Angpt1, Mdk, Plxdc1, Efna1, Tspan12)” value is listed as “restored to normal levels”; the “genes related to inflammation (upregulated in saline-treated Gabrb3^ECKO)” value is recorded as “restored to normal levels”. In assay [1] (E18), the “vascular/angiogenesis genes upregulated in Gabrb3^ECKO (Fgf6, Flt1, Hand2, Egf, Itgb3, Plg, Epas1, Bai1, Col4a3, Eng)” value is “restored to normal expression levels”. Moreover, the “purinergic receptor signaling genes (microarray)” value in assay [1] (vs saline-treated Gabrb3^ECKO group) is given as “notable change in purinergic receptor signaling genes”. In assay [1] (vs saline-treated Gabrb3^ECKO, fold change cut off ≥+/−50%), the “gene expression profile (heat map clusters)” value is “shift in the gene expression profile”. Besides, in assay [2] (setting [3]), the “RBC velocity in capillaries” value was “reversed”; the “diameter of capillaries and collecting venules” value is “morphological alteration was rescued”. Also, the “blood flow in capillaries and collecting venules” value in assay [2] (vs saline-treated Gabrb3^ECKO mice) was “significantly reduced”.
